From publication PMC11873939, “Target Identification with Live-Cell Photoaffinity Labeling and Mechanism of Action Elucidation of ARN23765, a Highly Potent CFTR Corrector” (Journal of Medicinal Chemistry, 2025)

Legend:
F508del/R1070W-CFTR [1] = biological target: T1, F508del/R1070W-CFTR (Homo sapiens, UniProt P13569, DEL508-508/R1070W); test: FLIPR membrane potential assay of CFTR channel activity in transfected HEK293 cells; assay type: cell-based; conditions: HEK293, 24 h; ARN23765 10 nM, VX-661 3 μM
T1 construct: CFTR identification in pull-down studies and analysis of full-length CFTR in protein maturation assays; expressed in transfected cells; host or cells: HEK293 (transient)
T1 sequence (P13569 with tags, fused parts or gaps DEL508-508/R1070W): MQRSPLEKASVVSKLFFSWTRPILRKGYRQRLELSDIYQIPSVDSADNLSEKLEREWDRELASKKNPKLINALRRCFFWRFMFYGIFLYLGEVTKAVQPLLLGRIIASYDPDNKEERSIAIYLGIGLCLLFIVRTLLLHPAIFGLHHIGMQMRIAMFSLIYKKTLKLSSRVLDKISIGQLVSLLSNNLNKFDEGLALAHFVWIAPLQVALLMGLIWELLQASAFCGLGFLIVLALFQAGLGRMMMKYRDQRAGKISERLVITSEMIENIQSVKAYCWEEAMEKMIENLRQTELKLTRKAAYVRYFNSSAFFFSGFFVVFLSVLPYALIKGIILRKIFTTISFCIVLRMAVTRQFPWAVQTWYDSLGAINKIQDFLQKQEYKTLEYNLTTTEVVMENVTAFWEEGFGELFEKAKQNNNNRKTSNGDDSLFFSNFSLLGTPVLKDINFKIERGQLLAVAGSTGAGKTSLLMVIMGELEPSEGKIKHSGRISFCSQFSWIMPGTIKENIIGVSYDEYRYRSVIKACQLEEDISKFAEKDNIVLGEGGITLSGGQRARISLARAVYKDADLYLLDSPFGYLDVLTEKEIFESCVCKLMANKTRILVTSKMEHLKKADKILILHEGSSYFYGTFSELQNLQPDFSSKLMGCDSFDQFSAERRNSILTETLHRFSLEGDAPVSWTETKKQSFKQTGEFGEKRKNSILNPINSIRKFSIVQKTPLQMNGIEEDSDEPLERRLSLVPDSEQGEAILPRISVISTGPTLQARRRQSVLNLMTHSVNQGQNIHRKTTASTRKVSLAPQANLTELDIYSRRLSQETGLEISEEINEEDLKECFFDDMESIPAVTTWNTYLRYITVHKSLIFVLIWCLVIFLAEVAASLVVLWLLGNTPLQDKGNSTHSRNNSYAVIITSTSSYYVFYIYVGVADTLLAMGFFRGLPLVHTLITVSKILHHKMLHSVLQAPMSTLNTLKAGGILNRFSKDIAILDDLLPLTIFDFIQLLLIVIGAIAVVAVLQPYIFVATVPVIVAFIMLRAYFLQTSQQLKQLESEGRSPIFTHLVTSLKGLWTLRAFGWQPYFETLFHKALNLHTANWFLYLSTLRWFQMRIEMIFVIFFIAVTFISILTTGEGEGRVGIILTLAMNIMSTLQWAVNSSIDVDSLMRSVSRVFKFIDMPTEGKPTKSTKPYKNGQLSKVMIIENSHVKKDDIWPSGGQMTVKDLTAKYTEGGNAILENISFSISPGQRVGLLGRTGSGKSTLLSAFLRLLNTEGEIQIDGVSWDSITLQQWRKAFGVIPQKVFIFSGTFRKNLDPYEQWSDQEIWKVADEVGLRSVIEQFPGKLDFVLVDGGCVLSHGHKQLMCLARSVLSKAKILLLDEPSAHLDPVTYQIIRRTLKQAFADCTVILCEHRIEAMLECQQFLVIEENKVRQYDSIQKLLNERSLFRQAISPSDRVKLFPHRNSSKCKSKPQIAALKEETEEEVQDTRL
Method: (§1) HS-YFP-based assay for CFTR activity
(§2) Twenty-four hours after seeding on 96-well plates, CFBE41o- cells stably over-expressing F508del-CFTR and the HS-YFP were treated with test compounds at different concentrations in the 3 nM-10 µM range.1 Cells treated with vehicle alone (DMSO) and with ARN23765, respectively, served as negative and positive controls. The following day, cells were washed with PBS containing (in mM) 137 NaCl, 2.7 KCl, 8.1 Na2HPO4, 1.5 KH2PO4, 1.0 CaCl2, and 0.5 MgCl2. Cells were then incubated for 25 min with […] of PBS plus forskolin (20 µM) and VX-770 (1 µM) to maximally stimulate F508del-CFTR. Cells were then transferred to a microplate reader (FluoStar Galaxy; BMG Labtech, Offenburg, Germany) for CFTR activity determination. The plate reader was equipped with high-quality excitation (HQ500/20X: 500 ± 10 nm) and emission (HQ535/30M: 535 ± 15 nm) filters for YFP (Chroma Technology). Each assay comprised a continuous 14 s fluorescence reading, 2 s before and 12 s after injection of […] of an iodide-containing solution (PBS with Cl- replaced by I-; final I- concentration […]). Data were normalized to the initial background-subtracted fluorescence. […]
Cell lysates or eluates from pull-down experiments were resolved by SDS-PAGE on 4-8 % tris-acetate gels (EA0378BOX, Life technologies) and were transferred into PVDF membranes (Immobilion-E IEVH00005, Millipore). […] Images were acquired with Chemidoc MP (BIO-RAD laboratories) and quantified with Image J software.
CFTR Channel function analysis by fluorometric imaging plate reader functional (FLIPR) assay FLIPR assay was performed as previously described.3 Briefly, HEK293 cells were seeded in 96-well plates (black, flat bottom, Corning) and transfected with mutated CFTR constructs. […]
µM) for 24 h at 30 °C or 37 °C. […] The plate was then read in a fluorescence plate reader (SpectraMax i3, Molecular Devices) at 37 °C (excitation: 530 nm, emission: 560 nm). […] CFTR-mediated depolarization was detected as an increase in fluorescence. […] The peak changes in fluorescence were normalized to fluorescence immediately […]

F508del/R1070W-CFTR [2] = biological target: T1, F508del/R1070W-CFTR; test: Protein maturation assay (WB, band C/(C+B)) in transfected HEK293 cells; assay type: cell-based; conditions: HEK293, 24 h; ARN23765 10 nM, VX-661 3 μM
Method: HEK293 cells were plated in 24-wells at around 80% of confluence and transfected with constructs coding for F508del-CFTR or mutants using JetPEI reagent (101000053, Polyplus Technology) following the manufacturer’s instructions. After 24 h, the correctors were added for a further 24 h. […] For binding site analysis experiments, the cells were kept either at 37 °C (Figure S8) or moved to 30 °C (Figure 9) during incubation with the selected correctors. VX-445 and corrector 3151 were mixed together as a control for maximal protein correction. DMSO (0.2%) was added to nontreated controls. After treatment, cells were lysed in RIPA buffer [50 mM tris-HCl pH 8, 150 mM NaCl, 1% NP40, 0.5% sodium deoxycolate, 0.1% SDS, 2.0 mM EDTA] and lysates were analyzed with WB, as described in the supplementary methods of the Supporting Information.

F508del-CFTR [3] = biological target: T2, F508del-CFTR (Homo sapiens, UniProt P13569, DEL508-508); test: Live-cell photoaffinity labeling, streptavidin pull-down and CFTR Western blot; assay type: binding
T2 construct: expressed in transfected cells
T2 sequence (P13569 with tags, fused parts or gaps DEL508-508): as the sequence (P13569 with tags, fused parts or gaps DEL508-508/R1070W) above, with W1069R counted along it
Method: (§3) Wt-CFTR or F508del-CFTR CFBE41o- cells were plated at 2–2.5 × 10^6 cells/plate in 6 cm diameter dishes. The day after, sodium butyrate (5–2.5 mM) was added for 24 h; next, the medium was exchanged with fresh one supplemented with DMSO (0.25%) (276855, Sigma-Aldrich) or probe (1 μM). For competition experiments, a 25-fold excess of ARN23765 (25 μM) was added 30 min before probe’s addition. For the analysis of “corrected” F508del-CFTR, F508del-CFTR CFBE41o- cells were kept at 27 °C for 24 h before adding the probes. Probes were incubated with cells for 2 h, then the medium was removed, and plates were washed twice with phosphate buffer saline (PBS). Cells were placed on ice and irradiated for 5 min at a wavelength of 365 nm using a 100-W UV-lamp (95–0127–02 model B100-AP, Analytik Jena). Cells were harvested with trypsin (T4299, Sigma-Aldrich), washed with PBS (D8537, Sigma-Aldrich), and pellets were stored at −80 °C until used, centrifuged at 300 × g and washed twice with PBS (D8537, Sigma-Aldrich). Pellets from in-cell photoaffinity labeling with alkyne-probes (PAP_1 and PAP_2) were lysed in PBS plus protease inhibitor cocktail (78429, Thermo Scientific) by sonication. The suspension was centrifuged at 800 × g for 20 min at 4 °C to discard nuclei and cell debris. The total extracted proteins were quantified with the bicinchoninic acid (BCA) protein assay (23225, Thermo Scientific) and subjected to CuAAC before proceeding with pull-down. Pellets from in-cell photoaffinity labeling with desthio-biotinylated (DS-biot) probes (PAP_1 DS-biot, PAP_2 DS-biot, PAP_N1 DS-biot, PAP_N2 DS-biot) were lysed with a modified RIPA buffer [50 mM tris-HCl pH 8, 150 mM NaCl, 0.5% Triton-X100, 0.2% SDS, 1 mM ethylenediaminetetraacetic acid (EDTA)] supplemented with protease inhibitor cocktail and centrifuged at 10.000× g for 10 min. The protein content in the supernatant was quantified by BCA protein assay. Protein lysate (200 μg) was diluted to 800 μL and the Triton-X100 percentage was reduced to 0.2% before proceeding to pull-down.
(§4) High capacity streptavidin agarose (20359, Thermo Scientific) (25 μL) was added to PAP-labeled cell extracts for 1 h at room temperature under gentle rotation. The streptavidin beads were collected by centrifugation and washed four times with lysis buffer. Resin-bound proteins were eluted with 45 μL of 5 mM biotin (B4501, Sigma-Aldrich) for 30 min at room temperature and analyzed with Western blot for CFTR expression. Input samples (4 and 8 μg for wt-CFTR and F508del-CFTR CFBE41o-, respectively) were collected immediately before incubation with streptavidin resin. Input and pulled-down samples were analyzed with WB as described in the supplementary methods.

F508del-CFTR [4] = biological target: T2, F508del-CFTR; test: HS-YFP functional assay in CFBE41o- cells stably overexpressing F508del-CFTR; assay type: cell-based; conditions: 24 h treatment
Method: These analogues were tested in the functional assay on the human bronchial epithelia-derived cell line, CFBE41o-, which stably overexpresses F508del-CFTR and the halide-sensitive yellow fluorescent protein (HS-YFP).[31] […]
as §1
as §2, with “fluorescence. To determine I- influx rate, the final 11 s of the data for each well were fitted with an exponential function to extrapolate initial slope (dF/dt). Reproducibility of results was confirmed by performing three independent experiments.” for “fluorescence.”

wt-CFTR = biological target: T3, wt-CFTR (Homo sapiens, UniProt P13569); test: Live-cell photoaffinity labeling, streptavidin pull-down and CFTR Western blot; assay type: binding; conditions: wt-CFTR CFBE41o- cells, probe 1 μM, 2 h, UV 365 nm
T3 construct: expressed in transfected cells
T3 sequence (P13569 whole entry): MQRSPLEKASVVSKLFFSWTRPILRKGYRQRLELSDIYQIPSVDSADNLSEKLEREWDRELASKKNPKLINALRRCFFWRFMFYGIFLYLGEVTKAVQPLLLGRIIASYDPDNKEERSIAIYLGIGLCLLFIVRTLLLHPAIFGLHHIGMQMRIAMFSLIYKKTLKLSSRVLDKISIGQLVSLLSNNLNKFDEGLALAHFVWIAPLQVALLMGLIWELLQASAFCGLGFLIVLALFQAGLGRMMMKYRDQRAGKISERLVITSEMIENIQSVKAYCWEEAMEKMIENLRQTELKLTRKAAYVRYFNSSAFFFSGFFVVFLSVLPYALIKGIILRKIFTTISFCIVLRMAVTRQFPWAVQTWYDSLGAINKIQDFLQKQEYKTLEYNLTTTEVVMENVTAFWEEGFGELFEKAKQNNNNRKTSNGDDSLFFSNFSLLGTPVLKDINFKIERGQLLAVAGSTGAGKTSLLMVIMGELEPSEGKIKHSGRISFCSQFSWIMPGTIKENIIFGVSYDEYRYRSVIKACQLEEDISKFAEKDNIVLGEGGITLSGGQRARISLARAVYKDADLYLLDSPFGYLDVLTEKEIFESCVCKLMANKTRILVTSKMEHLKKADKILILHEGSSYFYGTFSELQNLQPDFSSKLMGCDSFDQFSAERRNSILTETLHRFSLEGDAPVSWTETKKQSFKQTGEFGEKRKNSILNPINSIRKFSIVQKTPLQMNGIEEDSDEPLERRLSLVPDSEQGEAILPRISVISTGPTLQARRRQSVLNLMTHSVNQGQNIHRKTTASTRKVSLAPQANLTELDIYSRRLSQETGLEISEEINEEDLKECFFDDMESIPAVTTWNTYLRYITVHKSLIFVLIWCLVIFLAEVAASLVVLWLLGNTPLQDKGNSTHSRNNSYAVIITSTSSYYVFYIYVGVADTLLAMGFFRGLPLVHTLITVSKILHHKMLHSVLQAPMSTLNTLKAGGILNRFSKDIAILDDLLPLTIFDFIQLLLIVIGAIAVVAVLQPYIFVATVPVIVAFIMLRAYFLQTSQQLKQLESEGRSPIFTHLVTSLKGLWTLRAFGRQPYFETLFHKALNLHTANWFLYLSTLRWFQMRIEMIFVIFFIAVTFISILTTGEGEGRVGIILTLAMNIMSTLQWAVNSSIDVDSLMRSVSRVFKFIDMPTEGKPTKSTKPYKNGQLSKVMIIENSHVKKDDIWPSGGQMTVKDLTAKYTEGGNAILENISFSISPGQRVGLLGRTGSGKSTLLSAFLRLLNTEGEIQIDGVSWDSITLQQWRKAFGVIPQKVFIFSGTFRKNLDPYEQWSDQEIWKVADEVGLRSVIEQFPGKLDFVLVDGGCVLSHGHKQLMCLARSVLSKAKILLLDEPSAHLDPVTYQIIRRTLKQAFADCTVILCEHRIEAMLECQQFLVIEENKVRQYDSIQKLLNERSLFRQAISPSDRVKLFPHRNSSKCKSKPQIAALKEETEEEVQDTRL
Method: as §3
Copper-catalyzed azide–alkyne cycloaddition (CuAAC) was performed according to a previously described protocol.[62] Briefly, to the protein preparation (250 μL at 1 mg/mL protein concentration) the following reagents were added at the indicated final concentrations: 100 μM 5/6-TAMRA-azide-desthiobiotin (CLK-1110–5, Jena Bioscience), 1.0 mM tris-(2-carbossietil)phosphine (TCEP, C4706, Sigma-Aldrich), 100 μM tris-[(1-benzyl-1H-1,2,3-triazol-4-yl)methyl]amine (TBTA, 678937, Sigma-Aldrich), 1.0 mM CuSO4.5H2O (Sigma), and 0.8% sodium dodecyl sulfate (SDS). TBTA was first dissolved in DMSO at 83.5 mM and then diluted with four volumes of tert-butanol. The reaction was mixed by vortexing and incubated for 1 h at 25 °C. After the reaction time, proteins were precipitated with 5 volumes of cold acetone overnight at −20 °C. Samples were centrifuged for 20 min at 20.000× g, and the pellets were washed with methanol, air-dried, and finally resuspended with 600 μL of 1% SDS. SDS concentration was then diluted to 0.2% with PBS before proceeding to pull-down.
as §4

CFTR = test: Live-cell photoaffinity labeling in CFTR–/– CFBE41o- cells (control); assay type: binding, human; conditions: probe 1 μM, 2 h

SMILES | F508del/R1070W channel activity (FLIPR) (F508del/R1070W-CFTR [1]) | F508del/R1070W protein maturation (F508del/R1070W-CFTR [2]) | CFTR forms in streptavidin pull-down (WB) after PAL (F508del-CFTR [3]; F508del-CFTR CFBE41o- cells kept at 27 °C for 24 h (low-temperature rescue) before PAL) | CFTR in streptavidin pull-down (WB) after PAL (F508del-CFTR [3]; F508del-CFTR CFBE41o- cells, probe 1 μM, 2 h, UV 365 nm) | EC50 (F508del-CFTR [4]; 3 nM-10 µM range) | HS-YFP assay in CFBE41o- cells Emax (F508del-CFTR [4]; values normalized to DMSO-incubated cells) | CFTR in streptavidin pull-down (WB) after PAL (wt-CFTR) | CFTR in streptavidin pull-down (WB) after PAL (CFTR)
CC(C)(CO)c1cc2cc(NC(=O)C3(c4ccc5c(c4)OC(F)(F)O5)CC3)c(F)cc2n1C[C@@H](O)CO [VX-661, tezacaftor, reference compound] | further enhanced | further enhanced | – | – | – | – | – | –
C[C@H]1NC(=O)N[C@H]1CCCCCC(=O)NCCOCCOCCOCCn1cc(CCC2(CCNC(=O)c3ccc(O[C@H]4CCCc5c(C(F)(F)F)nn(-c6cccc(C(=O)N(C)c7ccc8c(c7)OC(F)(F)O8)c6)c54)cc3)N=N2)nn1 [PAP_1 DS-biot, N-(2,2-Difluorobenzo[d][1,3]dioxol-5-yl)-N-methyl-3-((S)-7-(4-((2-(3-(2-(1-(18-((4S,5R)-5-methyl-2-oxoimidazolidin-4-yl)-13-oxo-3,6,9-trioxa-12-azaoctadecyl)-1H-1,2,3-triazol-4-yl)ethyl)-3H-diazirin-3-yl)ethyl)carbamoyl)phenoxy)-3-(trifluoromethyl)-4,5,6,7-tetrahydro-1H-indazol-1-yl)benzamide] | – | – | bound and pulled down both F508del-CFTR immature (band B) and mature (band C) protein | consistently captured | 122 nM | 2.7 | consistently captured | did not detect CFTR
